Experiment [1] has as its target GST-tagged human ROCK2 catalytic domain 1-553 (Homo sapiens (Human), UniProt O75116). Put plainly: Inhibition of Rho-associated protein kinase isoform 2 (LANCE Ultra ULight-CREBtide FRET kinase assay). The class given is biochemical. The following applies: for IC50: 30 μM was the highest concentration analyzed; for Selectivity for ROCK2 over ROCK1 (IC50 ROCK1 / IC50 ROCK2): selectivity ROCK2 vs ROCK1. In short, it runs like this:
(§1)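 Baculovirus-expressed kinase phosphorylated ULight-CREBtide for 90 min at room temperature before the reaction was stopped with 10 mM EDTA. Phospho-substrate was detected by TR-FRET with 1 nM Europium-anti-phospho-CREB (Ser133) antibody after 60 min at room temperature.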

The target in experiment [2] is GST-tagged human ROCK1 catalytic domain 1-477 (Homo sapiens (Human), UniProt Q13464). Put plainly: Inhibition of Rho-associated protein kinase isoform 1 (LANCE Ultra ULight-CREBtide FRET kinase assay). The class given is biochemical. As to conditions: 30 μM was the highest concentration analyzed. Put shortly:
as §1
(In general: TR-FRET usually uses a lanthanide donor and a delayed reading to cut background.)

Sequence of GST-tagged human ROCK2 catalytic domain 1-553 (O75116 1-553): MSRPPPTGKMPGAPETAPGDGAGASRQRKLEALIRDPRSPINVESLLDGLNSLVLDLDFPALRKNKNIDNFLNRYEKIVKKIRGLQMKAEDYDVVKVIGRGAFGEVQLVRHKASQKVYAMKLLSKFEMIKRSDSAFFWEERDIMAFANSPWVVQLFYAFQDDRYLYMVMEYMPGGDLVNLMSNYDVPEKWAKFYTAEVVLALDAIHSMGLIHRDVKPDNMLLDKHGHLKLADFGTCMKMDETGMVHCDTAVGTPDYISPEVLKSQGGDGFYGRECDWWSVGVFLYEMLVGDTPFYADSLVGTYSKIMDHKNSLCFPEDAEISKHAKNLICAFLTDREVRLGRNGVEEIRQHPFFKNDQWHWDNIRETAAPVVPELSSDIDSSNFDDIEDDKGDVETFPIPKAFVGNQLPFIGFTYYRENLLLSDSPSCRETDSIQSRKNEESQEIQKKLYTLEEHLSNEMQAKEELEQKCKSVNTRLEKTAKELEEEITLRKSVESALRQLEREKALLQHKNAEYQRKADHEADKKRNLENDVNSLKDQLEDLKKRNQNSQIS
Sequence of GST-tagged human ROCK1 catalytic domain 1-477 (Q13464 1-477): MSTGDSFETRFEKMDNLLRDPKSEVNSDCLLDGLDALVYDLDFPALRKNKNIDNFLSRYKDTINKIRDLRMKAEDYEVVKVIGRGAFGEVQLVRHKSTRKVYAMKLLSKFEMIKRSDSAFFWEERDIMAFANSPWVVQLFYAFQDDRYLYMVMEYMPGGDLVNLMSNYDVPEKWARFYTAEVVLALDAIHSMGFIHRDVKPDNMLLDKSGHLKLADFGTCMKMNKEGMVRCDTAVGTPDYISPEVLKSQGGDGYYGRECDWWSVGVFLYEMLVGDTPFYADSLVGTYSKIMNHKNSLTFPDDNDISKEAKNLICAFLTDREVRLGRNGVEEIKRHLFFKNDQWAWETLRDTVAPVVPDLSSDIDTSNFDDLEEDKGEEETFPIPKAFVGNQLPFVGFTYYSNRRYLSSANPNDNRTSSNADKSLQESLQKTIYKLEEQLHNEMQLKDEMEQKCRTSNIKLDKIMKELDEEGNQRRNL

In general, IC50 refers to the midpoint of a concentration-inhibition curve. Low values mean greater potency, high ones weaker potency. Turning to `Clc1c(Nc2nnc(-c3cccc4c3OCCO4)s2)ccc2[nH]ncc12` [Example 75E], the IC50 in experiment [1] and in experiment [2] was above 30 µM in each case.
On to `Clc1c(Nc2nnc(-c3cccc(-c4ncco4)c3)s2)ccc2[nH]ncc12` [Example 46O], for which, in experiment [1], the IC50 is below 1 µM and the “Selectivity for ROCK2 over ROCK1 (IC50 ROCK1 / IC50 ROCK2)” value (shortened to “Selectivity … (IC50 ROCK1 / IC50 ROCK2)”) is listed as above 100. Further, in experiment [2], the IC50 is above 30 µM.
For `OCCN(c1ccc2[nH]ncc2c1)c1nnc(-c2cnccn2)s1` [Example A-12], in experiment [1], the concentration for half-maximal inhibition (IC50) is above 30 µM and the “Selectivity … (IC50 ROCK1 / IC50 ROCK2)” value was below 5. This compound also returned a concentration for half-maximal inhibition (IC50) in experiment [2] above 30 µM.
On to `O=C(Cc1ncccn1)Nc1cccc(-c2nnc(Nc3ccc4[nH]ncc4c3Cl)s2)c1` [Example 35AP], for which the half-maximal inhibitory concentration (IC50) in experiment [1] and in experiment [2] was below 1 µM in each case. Also, in experiment [1], the “Selectivity … (IC50 ROCK1 / IC50 ROCK2)” value is below 5.
With `CC(=O)Nc1cccc(-c2nnc(N(C)c3ccc4[nH]ncc4c3Cl)s2)c1` [Example 35BC], in experiment [1], the IC50 is below 1 µM and the “Selectivity … (IC50 ROCK1 / IC50 ROCK2)” value is given as above 75. The compound also came in with an IC50 in experiment [2] above 30 µM.
Take `COc1ncc(C(=O)Nc2cccc(-c3nnc(Nc4ccc5[nH]ncc5c4Cl)s3)c2)cn1.O=C(O)C(F)(F)F` [Example 35AU]: in experiment [1], the IC50 is below 1 µM and the “Selectivity … (IC50 ROCK1 / IC50 ROCK2)” value is above 100. The compound also came in with an IC50 in experiment [2] above 30 µM.
For the compound `O=C(Cc1cccc(C(F)(F)F)n1)Nc1cccc(-c2nnc(Nc3ccc4[nH]ncc4c3Cl)s2)c1` [Example 35AI], in experiment [1], the concentration for half-maximal inhibition (IC50) is below 1 µM and the “Selectivity … (IC50 ROCK1 / IC50 ROCK2)” value is above 5. For the same compound, the half-maximal inhibitory concentration (IC50) in experiment [2] is below 1 µM.
Turning to `CC(=O)Nc1cccc(-c2nnc(N(C)c3ccc4[nH]ncc4c3)s2)c1` [Example 54D], the IC50 in experiment [1] and in experiment [2] was 1 to 15 µM each time.
Regarding `CC(C)(C)c1cn2cccc(-c3nnc(Nc4ccc5[nH]ncc5c4Cl)s3)c2n1` [Example 75T], the IC50 in experiment [1] and in experiment [2] was above 30 µM throughout.
With `O=C(Nc1cccc(-c2nnc(Nc3ccc4[nH]ncc4c3Cl)s2)c1)N1CCNCC1` [Example 35T], the concentration for half-maximal inhibition (IC50) in experiment [1] and in experiment [2] was below 1 µM throughout. In addition, the “Selectivity … (IC50 ROCK1 / IC50 ROCK2)” value in experiment [1] was above 5.
Consider `Cn1cc(C(=O)Nc2cncc(-c3nnc(Nc4ccc5[nH]ncc5c4)s3)c2)cn1.O=C(O)C(F)(F)F` [Example 35CA], for which the IC50 in experiment [1] and in experiment [2] was below 1 µM throughout. In experiment [1], the “Selectivity … (IC50 ROCK1 / IC50 ROCK2)” value is given as below 5.
As for `O=C(Nc1cccc(-c2nnc(Nc3ccc4[nH]ncc4c3Cl)s2)c1)c1cc(O)cc(O)c1` [Example 35AS], in experiment [1], the 50% inhibitory concentration (IC50) is below 1 µM and the “Selectivity … (IC50 ROCK1 / IC50 ROCK2)” value was above 50. For the same compound, the IC50 in experiment [2] is below 1 µM.
In the case of `c1cc(-c2nnc(Nc3ccc4[nH]ncc4c3)s2)cc(N2CCNCC2)c1` [Example 75H], the concentration for half-maximal inhibition (IC50) in experiment [1] is 1 to 15 µM; in experiment [2], above 30 µM. For the same compound, the “Selectivity … (IC50 ROCK1 / IC50 ROCK2)” value in experiment [1] is reported as above 5.
For `CC(=O)Nc1cc(C(=O)N2CCC(C(=O)O)CC2)cc(-c2nnc(Nc3ccc4[nH]ncc4c3Cl)s2)c1` [Example 48Q], in experiment [1], the IC50 was below 1 µM and the “Selectivity … (IC50 ROCK1 / IC50 ROCK2)” value was above 5. In experiment [2], this compound displayed an IC50 of 1 to 15 µM.
The corresponding values for `CC(C)(C)C(=O)Nc1cccc(-c2nnc(Nc3ccc4[nH]ncc4c3Cl)s2)c1` [Example 35O] are below 1 µM, above 5 and below 1 µM.
As for `CC(C)C(=O)Nc1cccc(-c2nnc(Nc3ccc4[nH]ncc4c3Cl)s2)c1` [Example 35V], in experiment [1], the IC50 was below 1 µM and the “Selectivity … (IC50 ROCK1 / IC50 ROCK2)” value was above 5. In experiment [2], the half-maximal inhibitory concentration (IC50) was below 1 µM.
As to `CN1C(=O)Cc2cccc(-c3nnc(Nc4ccc5[nH]ncc5c4Cl)s3)c21` [Example 56C], the IC50 in experiment [1] and in experiment [2] was 1 to 15 µM throughout. Also, the “Selectivity … (IC50 ROCK1 / IC50 ROCK2)” value in experiment [1] is given as below 5.
Consider `CSc1ccc(NC(C)=O)cc1-c1nnc(Nc2ccc3[nH]ncc3c2Cl)s1` [Example 48F], for which the IC50 in experiment [1] and in experiment [2] was below 1 µM in each case. Moreover, the “Selectivity … (IC50 ROCK1 / IC50 ROCK2)” value in experiment [1] is listed as above 5.
On to `c1cc(-c2nnc(Nc3ccc4[nH]ncc4c3)s2)c2nccn2c1` [Example 49, 5-Imidazo[1,2-a]pyridin-8-yl-N-(1H-indazol-5-yl)-1,3,4-thiadiazol-2-amine 2,2,2-trifluoroacetic Acid Solvate], for which the half-inhibitory concentration (IC50) in experiment [1] and in experiment [2] was below 1 µM in each case. Further, the “Selectivity … (IC50 ROCK1 / IC50 ROCK2)” value in experiment [1] is given as above 5.
Consider `CCc1cn2cccc(-c3nnc(Nc4ccc5[nH]ncc5c4Cl)s3)c2n1` [Example 52D], for which, in experiment [1], the half-inhibitory concentration (IC50) was below 1 µM and the “Selectivity … (IC50 ROCK1 / IC50 ROCK2)” value is on record as above 5. The 50% inhibitory concentration (IC50) in experiment [2] was below 1 µM.
As to `CC1(C)COC(c2cccc(-c3nnc(Nc4ccc5[nH]ncc5c4Cl)s3)c2)=N1` [Example 46F], in experiment [1], the IC50 was below 1 µM and the “Selectivity … (IC50 ROCK1 / IC50 ROCK2)” value is given as above 5. Also, the half-inhibitory concentration (IC50) in experiment [2] fell in the range of 1 to 15 µM.
The corresponding values for `CC(=O)c1cccc(-c2nnc(Nc3ccc4[nH]ncc4c3Cl)s2)c1` [Example 35AM] are below 1 µM, above 100 and above 30 µM.
As to `CC(=O)Nc1cc(F)c(F)c(-c2nnc(Nc3ccc4[nH]ncc4c3)s2)c1` [Example 35CB], in experiment [1], the IC50 was below 1 µM and the “Selectivity … (IC50 ROCK1 / IC50 ROCK2)” value is on record as above 100. In experiment [2], this compound yielded a 50% inhibitory concentration (IC50) above 30 µM.
For `O=C(Cc1ncc[nH]1)Nc1cccc(-c2nnc(Nc3ccc4[nH]ncc4c3Cl)s2)c1` [Example 35BD], in experiment [1], the IC50 is below 1 µM and the “Selectivity … (IC50 ROCK1 / IC50 ROCK2)” value is above 100. In experiment [2], the IC50 is above 30 µM.
`c1cc(-c2cn[nH]c2)cc(-c2nnc(Nc3ccc4[nH]ncc4c3)s2)c1` [Example A-17]: the IC50 in experiment [1] was below 1 µM; in experiment [2], above 30 µM. Moreover, the “Selectivity … (IC50 ROCK1 / IC50 ROCK2)” value in experiment [1] is recorded as above 100.
Consider `CCN(CC)Cc1cc(NC(C)=O)cc(-c2nnc(Nc3ccc4[nH]ncc4c3Cl)s2)c1.O=C(O)C(F)(F)F` [Example 48A], for which, in experiment [1], the IC50 is below 1 µM and the “Selectivity … (IC50 ROCK1 / IC50 ROCK2)” value was above 5. The compound also had an IC50 in experiment [2] of 1 to 15 µM.
As for `COc1ccc(CC(=O)Nc2cccc(-c3nnc(Nc4ccc5[nH]ncc5c4Cl)s3)c2)cc1` [Example 35BQ], in experiment [1], the IC50 was below 1 µM and the “Selectivity … (IC50 ROCK1 / IC50 ROCK2)” value is reported as above 5. Also, in experiment [2], the IC50 was below 1 µM.
Turning to `Cc1cccc(-c2cccc(-c3nnc(Nc4ccc5[nH]ncc5c4Cl)s3)c2)n1` [Example 75R], in experiment [1], the IC50 was below 1 µM and the “Selectivity … (IC50 ROCK1 / IC50 ROCK2)” value is on record as above 100. In experiment [2], this compound returned an IC50 above 30 µM.
For `O=C1Cc2cccc(-c3nnc(Nc4ccc5[nH]ncc5c4Cl)s3)c2N1` [Example 56E] the same measures were below 1 µM, above 50 and above 30 µM.
Regarding `Cc1cnoc1C(=O)Nc1cccc(-c2nnc(Nc3ccc4[nH]ncc4c3)s2)c1` [Example A-44], in experiment [1], the concentration for half-maximal inhibition (IC50) is below 1 µM and the “Selectivity … (IC50 ROCK1 / IC50 ROCK2)” value is reported as above 100. In experiment [2], this compound gave an IC50 above 30 µM.
With `Cn1nccc1C(=O)Nc1cccc(-c2nnc(Nc3ccc4[nH]ncc4c3)s2)c1` [Example A-43], in experiment [1], the half-maximal inhibitory concentration (IC50) is below 1 µM and the “Selectivity … (IC50 ROCK1 / IC50 ROCK2)” value is above 100. Also, the 50% inhibitory concentration (IC50) in experiment [2] was above 30 µM.

Values taken from patent publication US10112935B2, “Indazolyl thiadiazolamines and related compounds for inhibition of Rho-associated protein kinase and the treatment of disease” (Lycera Corporation, priority 2015, dated 2018).
